Test results: patent US20160304957A1, “TREATMENT AND MODULATION OF GENE EXPRESSION AND SKIN AGING” (DSM NUTRITIONAL PRODUCTS LTD., priority 2006, published 2016)

Experiments:
[1] = system: non-melanoma skin cancer; conditions: clinical intervention trials; cited from earlier work
[2] = system: HaCaT cells
Text: HaCaT cells were obtained from Prof. Fusenig, German Cancer Research Centre, Heidelberg. To gather cells more representative for the upper epidermal layer, we cloned the original cells by endpoint dilution. […] Cytokeratins were detected using anti-cytokeratin clones AE1/AE3 (Boehringer Mannheim, Germany) and anti-cytokeratin 1,10 antibody (Biogenesis Ltd., Poole, UK), respectively. […] Cells were propagated in FAD medium (DMEM/HAM's F12 3:1, Invitrogen); 5% NuSerum IV culture supplement and Miton™ 1:1000 (both Becton Dickinson, Bedford, Mass., USA). On day 0 of the experiment, cells were seeded at 2×10^5 cells per 60 mm dish. Cells were counted using a Coulter Multisizer (IG Instrumenten Gesellschaft, Zurich, Switzerland). […] On days 1 and 2, the media were replaced with fresh β-carotene-containing FAD medium without phenol red; 2% NuSerum; penicillin/streptomycin.
β-Carotene stock solutions and β-carotene-containing media were prepared under reduced light conditions. All-E-β-carotene was synthesized by DSM Nutritional Products (Kaiseraugst, Switzerland). β-carotene was dissolved in tetrahydrofurane (THF containing 0.025% butyl hydroxytoluol; Fluka Chemie A G, Buchs, Switzerland). Immediately before preparing the β-carotene stock solution, THF was purified over a basic aluminum oxide grade 1 (Camag, Muttenz, Switzerland) column. The n-carotene stock solution was prepared fresh for each experiment, and stored under argon at −20° C. until use. To prepare β-carotene-containing medium, the β-carotene stock solution was first diluted 1:1 with ethanol. This β-carotene/solvent mixture was then added to the cell culture medium to give a final concentration of 0.5, 1.5, or 3 μM β-carotene. β-carotene-containing medium was prepared fresh for the daily medium changes. The solvent concentration in the medium was kept constant at 0.5% for all treatment conditions.
All extraction and analytical procedures were carried out in brown glass, and under reduced light conditions. Acetonitrile, tert-butylmethylether, acetone and ethanol p. a. were from E. Merck K G (Darmstadt, Germany). Ammonium acetate p.a., butylated hydroxy toluene p.a., tetrahydrofuran p.a., triethylamine p.a., were from Fluka Chemie A G (Buchs, Switzerland). HPLC grade solvents for stock solutions, dilutions, and sample solvent mixtures were additionally purified over basic aluminum oxide grade 1 (Camag, Muttenz, Switzerland). To determine the β-carotene content of cells, the cell layer was washed 5 times with PBS/2% BSA. The cells were detached by trypsin/EDTA 0.05/0.02% and centrifuged at 10,000×g for 1 minute Cell pellets were lysed with acetone containing 0.025% BHT (v/w), vortex-mixed and dried in a speed-vac. The dried residue was extracted with ethanol/tBME/THF, 9:5:1, containing 0.025% of BHT (v/w) by vigorous vortex-mixing for one minute, and centrifugation for 3 minutes at 10,000×g. An aliquot of the clear supernatant was injected into the HPLC system. Cell culture medium was directly extracted with the solvent mixture described above, and the extract was treated as described for the cell pellets.
The HPLC system consisted of a 520 pump, a 565 autosampler cooled at 6° C., a 540+ diode array detector, a SDU 2003 solvent degasser unit and the Chroma 3000 data analysis system from Bio-Tek Instruments (Basel, Switzerland). A Vydac 218TP54 column (250×4.5 mm i.d., 300 angstrom pore wide) from the Separation Group (Hesperia, USA) was used for separation.

## CC1=C(/C=C/C(C)=C/C=C/C(C)=C/C=C/C=C(C)/C=C/C=C(C)/C=C/C2=C(C)CCCC2(C)C)C(C)(C)CCC1 [β-carotene, All-E-β-carotene]
[1]
  prevention of non-melanoma skin cancer: no significant prevention
[2]
  Retinol cellular content: <LOD
  Retinyl Palmitate cellular content: <LOD
  cellular β-carotene content relative to 72 hours: about half
  retinol or retinyl esters formed from β-carotene: do not produce detectable amounts
  time of peak cellular β-carotene concentration: 72 h
